Reference: paper PMC6542280 (Bioorganic & medicinal chemistry letters, 2019)

Target: T1, Nutrient-deprivation autophagy factor-1 (NAF-1, miner1) (Homo sapiens, UniProt Q8N5K1)
T1 sequence (Q8N5K1 57-135 limits assumed): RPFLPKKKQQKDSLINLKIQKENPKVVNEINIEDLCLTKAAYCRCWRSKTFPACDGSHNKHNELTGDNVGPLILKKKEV
Experiment: scintillation proximity assay, [3H]rosiglitazone displacement
Format: binding

NL-1
IC50: 29.8 µM
